According to patent publication US9708268B2, “ROR modulators and their uses” (INNOV17 LLC, priority 2012, dated 2017):

Key:
IL-17A [1] = assay: TH17 cytokine inhibition as measured by ELISA (IL-17A); assay type: cell-based; conditions: 120 h; human CD4+ T cells differentiated to TH17 over 5 days, supernatant ELISA, vs DMSO
Protocol: (§1) Peripheral blood mononuclear cells (PBMCs) were sourced from freshly prepared leukocyte enriched plasma (buffy coat) from healthy volunteers from which PBMCs were isolated by density gradient centrifugation using Ficoll-Paque™ PLUS (GE Healthcare). Naïve CD4+ T cells were isolated using the Naïve CD4+ T cell Isolation Kit II (Miltenyi Biotec) as per manufacturer's instructions. CD4+ T cells were plated at 5×10^4 cells/well in 96 well plates pre-coated with immobilized human (h)-αCD3 antibody (eBioscience) then differentiated to TH17 cells using h-αCD28, h-αIFN-γ, h-αIL-4, h-IL-6, h-IL-23, […], h-TGF-β1 (eBioscience) and maintained in a cell culture incubator at 37° C. with 5% CO2 in TexMACS Medium (Miltenyi Biotec) supplemented with 1% Penicillin/Streptomycin (Lonza) over 5 days.
(§2) Human CD4+ T cells were differentiated to TH17 cells as described in the presence or absence of various concentrations of compounds in a final concentration of 0.1% DMSO in TexMACS medium. Supernatants were collected and stored at −20° C. until they were to be assayed for IL-17A, IL-17F, IL-17AF, IL-21 and/or IL-22 levels as determined by Ready-Set-Go ELISA kits (eBioscience) as per manufacturer's instructions. Endpoint absorbance was read at 450 nm and 570 nm according to manufacturer's instructions (eBioscience) using a microplate reader (Perkin Elmer). The percentage of cytokine inhibition was calculated with reference to DMSO treated cells and the IC50s were determined by GraphPad Prism software and presented in the table below.

IL-17F [2] = assay: TH17 cytokine inhibition as measured by ELISA (IL-17F); assay type: cell-based; conditions: 120 h; human CD4+ T cells differentiated to TH17 over 5 days, supernatant ELISA, vs DMSO
Protocol: as §1, §2

IL-17AF = assay: TH17 cytokine inhibition as measured by ELISA (IL-17AF); assay type: cell-based; conditions: 120 h; human CD4+ T cells differentiated to TH17 over 5 days, supernatant ELISA, vs DMSO
Protocol: as §1, §2

IL-22 [3] = assay: TH17 cytokine inhibition as measured by ELISA (IL-22); assay type: cell-based; conditions: 120 h; human CD4+ T cells differentiated to TH17 over 5 days, supernatant ELISA, vs DMSO
Protocol: as §1, §2

[4] = TH17 cell viability (Prestoblue); assay type: cell-based; parameters: concentration or dose not given beside the values; conditions: human; percentage of DMSO treated cells; read-out: % viability of compound treated TH17 cells
Protocol: as §1
Cells were assayed for viability in the presence or absence of compound using Prestoblue® Cell Viability Reagent (Life Technologies) as per manufacturer's instructions after 30 minutes incubation of TH17 cells with reagent. Absorbance was measured at 570 nm and 600 nm using a microplate reader (Perkin Elmer) and data were analyzed as per manufacturer's instructions. Cell viability was expressed as a percentage of DMSO treated cells.

TH17 cells = assay: TH17 cellular proliferation (Prestoblue); assay type: cell-based, human; conditions: 3 μM compound, after 5 day TH17 differentiation, relative to DMSO treated cells
Protocol: as §1
Cellular proliferation was assessed in the presence or absence of 3 μM compound using Prestoblue® Cell Viability Reagent (Life Technologies) as per manufacturer's instructions using absorbance as the output measured by a microplate reader (Perkin Elmer) after 30 minutes of incubation of cells and reagent. A standard curve developed by plotting varying cell numbers versus absorbance was used to assess differences in cellular proliferation between compound treated or untreated cells after the 5 day TH17 differentiation period.

IL-17A [5] = assay: Real-time qRT-PCR gene expression in TH17 cells (IL-17A); assay type: cell-based, human; parameters: key: A: No change in gene expression observed relative to DMSO treated TH17 cells; B: Decreased gene expression observed relative to DMSO treated TH17 cells; C: Increased gene expression observed relative to DMSO treated TH17 cells; conditions: mRNA
Protocol: as §1
(§3) RNA was isolated from TH17 cells and cDNA was synthesized using the Verso cDNA kit (Thermo Scientific) as per manufacturer's instructions. IL-17A, IL-17F, IL-21, IL-22, G-CSF, IL-23R and FOXP3 gene expression were determined for compound treated and untreated TH17 cell samples using Solaris qPCR Gene expression assays (Thermo Scientific) with an iCycler iQ Real-Time PCR Detection System (Bio-Rad). Individual gene expression was normalized to a panel of six reference genes (ACTB, TBP, HPRT1, PGK1, TFRC and PPIA) (Thermo Scientific) and analyzed by REST 2009 (Qiagen) in accordance to MIQE guidelines (Bustin, et al. (2009) Clin. Chem. 55, 611-622), which is hereby incorporated by reference in its entirety). The effects of compounds on TH17 cytokine mRNA levels are presented as fold change in gene expression of compound treated TH17 cells relative to DMSO treated cells in the table below.

IL-17F [6] = assay: Real-time qRT-PCR gene expression in TH17 cells (IL-17F); assay type: cell-based, human; parameters: key: A: No change in gene expression observed relative to DMSO treated TH17 cells; B: Decreased gene expression observed relative to DMSO treated TH17 cells; C: Increased gene expression observed relative to DMSO treated TH17 cells; conditions: mRNA
Protocol: as §1, §3

IL-22 [7] = assay: Real-time qRT-PCR gene expression in TH17 cells (IL-22); assay type: cell-based, human; parameters: key: A: No change in gene expression observed relative to DMSO treated TH17 cells; B: Decreased gene expression observed relative to DMSO treated TH17 cells; C: Increased gene expression observed relative to DMSO treated TH17 cells; conditions: mRNA
Protocol: as §1, §3

IL-21 = assay: Real-time qRT-PCR gene expression in TH17 cells (IL-21); assay type: cell-based, human; parameters: key: A: No change in gene expression observed relative to DMSO treated TH17 cells; B: Decreased gene expression observed relative to DMSO treated TH17 cells; C: Increased gene expression observed relative to DMSO treated TH17 cells; conditions: mRNA
Protocol: as §1, §3

IL-23R = assay: Real-time qRT-PCR gene expression in TH17 cells (IL-23R); assay type: cell-based, human; parameters: key: A: No change in gene expression observed relative to DMSO treated TH17 cells; B: Decreased gene expression observed relative to DMSO treated TH17 cells; C: Increased gene expression observed relative to DMSO treated TH17 cells; conditions: mRNA
Protocol: as §1, §3

FOXP3 = assay: Real-time qRT-PCR gene expression in TH17 cells (FOXP3); assay type: cell-based, human; parameters: key: A: No change in gene expression observed relative to DMSO treated TH17 cells; B: Decreased gene expression observed relative to DMSO treated TH17 cells; C: Increased gene expression observed relative to DMSO treated TH17 cells; conditions: mRNA
Protocol: as §1, §3

human RORγ LBD = human RORγ LBD (Homo sapiens (Human), UniProt P51449); assay: RORγ LBD binding (Human RORγ Assay System, INDIGO Biosciences)
Sequence of human RORγ LBD (P51449 269-508): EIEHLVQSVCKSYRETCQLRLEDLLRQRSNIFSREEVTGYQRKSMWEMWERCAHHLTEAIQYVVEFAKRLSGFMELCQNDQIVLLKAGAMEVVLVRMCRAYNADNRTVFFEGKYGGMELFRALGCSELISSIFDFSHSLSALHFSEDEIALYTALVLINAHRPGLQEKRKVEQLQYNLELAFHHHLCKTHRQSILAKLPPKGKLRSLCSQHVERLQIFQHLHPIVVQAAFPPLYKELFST
Protocol: Compound binding to the human RORγ LBD was assessed using the Human RORγ Assay System (INDIGO Biosciences Inc.) as per manufacturer's instructions.

Structure (SMILES) | IC50 (IL-17A [1]) [µM] | IC50 (IL-17F [2]) [µM] | IC50 (IL-17AF) [µM] | IC50 (IL-22 [3]) [µM] | viability [4] [%] | % change in TH17 cell number (TH17 cells) | Change in gene expression of compound treated TH17 cells relative to DMSO treated cells, IL-17A (IL-17A [5]) | Change in gene expression of compound treated TH17 cells relative to DMSO treated cells, IL-17F (IL-17F [6]) | Change in gene expression of compound treated TH17 cells relative to DMSO treated cells, IL-22 (IL-22 [7]) | Change in gene expression of compound treated TH17 cells relative to DMSO treated cells, IL-21 (IL-21) | Change in gene expression of compound treated TH17 cells relative to DMSO treated cells, IL-23R (IL-23R) | Change in gene expression of compound treated TH17 cells relative to DMSO treated cells, FOXP3 (FOXP3) | IC50 (human RORγ LBD) [µM]
NC(=O)c1ccc2c(c1)CCCN2Cc1ccc(C(O)(C(F)(F)F)C(F)(F)F)cc1 [Example 2, 1-(4-(1,1,1,3,3,3-hexafluoro-2-hydroxypropan-2-yl)benzyl)-1,2,3,4-tetrahydroquinoline-6-carboxamide] | < 10 | < 10 | < 10 | < 10 | > 80 | B (≦50% decrease in cell proliferation relative to DMSO treated TH17 cells) | A | A | A | A | A | A | –
NC(=O)c1ccc2c(c1)CCC(=O)N2Cc1ccc(C(O)(C(F)(F)F)C(F)(F)F)cc1 [Example 5, 1-(4-(1,1,1,3,3,3-hexafluoro-2-hydroxypropan-2-yl)benzyl)-2-oxo-1,2,3,4-tetrahydroquinoline-6-carboxamide] | > 10 | > 10 | > 10 | – | > 80 | – | – | – | – | – | – | – | –
CNC(=O)c1ccc2c(c1)CCC(=O)N2Cc1ccc(C(O)(C(F)(F)F)C(F)(F)F)cc1 [Example 6, 1-(4-(1,1,1,3,3,3-hexafluoro-2-hydroxypropan-2-yl)benzyl)-N-methyl-2-oxo-1,2,3,4-tetrahydroquinoline-6-carboxamide] | > 10 | > 10 | < 10 | – | > 80 | – | – | – | – | – | – | – | > 10
CN(C)C(=O)c1ccc2c(c1)CCC(=O)N2Cc1ccc(C(O)(C(F)(F)F)C(F)(F)F)cc1 [Example 7, 1-(4-(1,1,1,3,3,3-hexafluoro-2-hydroxypropan-2-yl)benzyl)-N,N-dimethyl-2-oxo-1,2,3,4-tetrahydroquinoline-6-carboxamide] | < 10 | < 10 | > 10 | – | > 80 | – | – | – | – | – | – | – | –
NC(=O)c1ccc2c(ccc(=O)n2Cc2ccc(C(O)(C(F)(F)F)C(F)(F)F)cc2)c1 [Example 8, 1-(4-(1,1,1,3,3,3-hexafluoro-2-hydroxypropan-2-yl)benzyl)-2-oxo-1,2-dihydroquinoline-6-carboxamide] | < 10 | < 10 | – | > 10 | > 80 | B (≦50% decrease in cell proliferation relative to DMSO treated TH17 cells) | A | B | C | A | A | A | –
CNC(=O)c1ccc2c(ccc(=O)n2Cc2ccc(C(O)(C(F)(F)F)C(F)(F)F)cc2)c1 [Example 9, 1-(4-(1,1,1,3,3,3-hexafluoro-2-hydroxypropan-2-yl)benzyl)-N-methyl-2-oxo-1,2-dihydroquinoline-6-carboxamide] | > 10 | > 10 | – | > 10 | > 80 | B (≦50% decrease in cell proliferation relative to DMSO treated TH17 cells) | B | B | B | B | A | A | –
CN(C)C(=O)c1ccc2c(ccc(=O)n2Cc2ccc(C(O)(C(F)(F)F)C(F)(F)F)cc2)c1 [Example 10, 1-(4-(1,1,1,3,3,3-hexafluoro-2-hydroxypropan-2-yl)benzyl)-N,N-dimethyl-2-oxo-1,2-dihydroquinoline-6-carboxamide] | < 10 | > 10 | – | > 10 | > 80 | B (≦50% decrease in cell proliferation relative to DMSO treated TH17 cells) | A | A | A | A | A | A | –
NC(=O)c1ccc2c(c1)CCN2Cc1ccc(C(O)(C(F)(F)F)C(F)(F)F)cc1 [Example 11, 1-(4-(1,1,1,3,3,3-hexafluoro-2-hydroxypropan-2-yl)benzyl)indoline-5-carboxamide] | < 10 | < 10 | – | < 10 | > 80 | B (≦50% decrease in cell proliferation relative to DMSO treated TH17 cells) | – | – | – | – | – | – | –
CNC(=O)c1ccc2c(c1)CCN2Cc1ccc(C(O)(C(F)(F)F)C(F)(F)F)cc1 [Example 12, 1-(4-(1,1,1,3,3,3-hexafluoro-2-hydroxypropan-2-yl)benzyl)-N-methylindoline-5-carboxamide] | < 10 | < 10 | – | > 10 | > 80 | B (≦50% decrease in cell proliferation relative to DMSO treated TH17 cells) | – | – | – | – | – | – | –
CN(C)C(=O)c1ccc2c(c1)CCN2Cc1ccc(C(O)(C(F)(F)F)C(F)(F)F)cc1 [Example 13, 1-(4-(1,1,1,3,3,3-hexafluoro-2-hydroxypropan-2-yl)benzyl)-N,N-dimethylindoline-5-carboxamide] | < 10 | < 10 | – | < 10 | > 80 | B (≦50% decrease in cell proliferation relative to DMSO treated TH17 cells) | – | – | – | – | – | – | –
